Where “and” joins values, the source holds several entries; their conditions need not be identical. Equal entries are not always repeated. Calls of active or inactive are those of the source.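 How the source made its calls: active means compounds giving half or more protection of infected cells from virus-caused growth loss, again on retest; inactive means the rest.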 Where a SMILES comes first, the peptide text is derived from it. Bridges are numbered along the chain shown (N, C = ends). [ ]: non-standard residue; d: D form. Hpg = N[CH](C(=O)O)c1ccc(O)cc1
Tested on: CEM cells HIV-1 protection, formazan growth assay
Assay: NCI AIDS Antiviral Assay
Settings: for IC50: measured here: growth of uninfected CEM cells
Outline: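 Soluble formazan readout of cell growth; CEM cells ± HIV-1; 5 drug concs. ≥50% protection → retest; ≥50% again = moderately active; reproducible 100% = confirmed active.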

Compound: Cc1c2ccccc2c(CSCCC(N)C(=O)O)c2ccccc12 (stereo unspecified)
- EC50: > 200 µM
- IC50: > 200 µM

Compound: O=C(O)[C@H](NS(=O)(=O)c1ccc([N+](=O)[O-])cc1)c1ccccc1
- outcome: inactive

Compound: O=C1C=C[C@@]23CC1C(O)C[C@H]2C=Cc1ccccc13 (stereo partly specified)
- EC50: > 102 µM
- IC50: > 102 µM

Compound: O=C(SCc1c(O)c2ccccc2oc1=O)c1ccccc1
- EC50: > 200 µM
- IC50: 67.6 µM

Compound: O=C(CC(C(=O)c1cccs1)c1ccsc1)c1ccc(Cl)s1 (stereo unspecified)
- EC50: > 200 µM
- IC50: 97.7 µM

Compound: N#CC12COC3(CCCCC3C1(C#N)C#N)OC2=N (stereo unspecified)
- EC50: > 200 µM
- IC50: 3.98 µM

Compound: COc1cc(C=NC2CCCCC2)cc(OC)c1OC
- EC50: > 182 µM
- IC50: 95.5 µM

Compound: CCCCCCCC/C=C\CCCCCCCCN=Cc1c(O)c(O)c(C(C)C)c2cc(C)c(-c3c(C)cc4c(C(C)C)c(O)c(O)c(C=NCCCCCCCC/C=C\CCCCCCCC)c4c3O)c(O)c12
- outcome: inactive

Compound: O=[N+]([O-])/C=C1\COCc2cc3c(cc21)OCO3
- EC50: > 200 µM
- IC50: 28.8 µM

Compound: Clc1ccc(C2ON=C(c3ccccc3)N2C23CC4CC(CC(C4)C2)C3)cc1 (stereo unspecified)
- EC50: > 200 µM
- IC50: > 200 µM

Compound: C[N+]12CC[N+](C)(CC1)CC2
- EC50: > 832 µM
- IC50: > 832 µM

Compound: N#CC1C(=O)Nc2cccnc21 (stereo unspecified)
- EC50: > 1580 µM
- IC50: 832 µM

Compound: CCOC(=O)C1CCC2c3[nH]c4ccccc4c3CCN2C1=O (stereo unspecified)
- EC50: > 115 µM
- IC50: > 115 µM

Compound: CC(=C\c1ccccc1)/C=C(\C#N)C(N)=O
- EC50: > 200 µM
- IC50: 97.7 µM

Compound: CC1Cc2c([nH]c3ccccc3c2=O)O1 (stereo unspecified)
- EC50: > 1230 µM
- IC50: 724 µM

Compound: NNc1[nH]c(=S)[nH]c1C(N)=O
- EC50: > 200 µM
- IC50: > 200 µM

Compound: Nc1nc(N)c2nc(-c3ccccc3)c(N)nc2n1
- outcome: inactive

Compound: O=C(c1ccccc1)c1c2ccccn2c2cccc[n+]12
- EC50: > 200 µM
- IC50: 53.7 µM

Compound: Cc1c(NC(=S)Nc2ccc(Cl)cc2)c(=O)n(-c2ccccc2)n1C
- EC50: > 200 µM
- IC50: > 200 µM

Compound: CC(C)(C)c1ccc(OC2CCO2)cc1 (stereo unspecified)
- EC50: > 34.7 µM
- IC50: > 34.7 µM

Compound: CCOC(=O)C1(c2ccccc2)CCN(Cc2ccccc2)CC1
- EC50: > 100 µM
- IC50: 52.5 µM

Compound: C[CH2][Pb]([CH2]C)([CH2]C)[O]C(=O)C(F)(F)F
- EC50: > 200 µM
- IC50: 31.6 µM

Compound: COc1ccc(N=Nc2c(-c3c(OC)cc4occc4c3OC)[nH]c(=O)c(C#N)c2C)cc1
- EC50: > 200 µM
- IC50: 120 µM

Compound: COc1cc(/C=C\C(=O)O)ccc1O
- EC50: > 200 µM
- IC50: > 200 µM

Compound: CCCn1c(=O)c2ccccc2[n+]2c(-c3ccc([N+](=O)[O-])cc3)csc12
- EC50: > 200 µM
- IC50: > 100 µM

Compound: CC(=O)N1c2ccccc2N(C(C)=O)C1c1ccc(C2N(C(C)=O)c3ccccc3N2C(C)=O)[nH]1
- outcome: inactive

Compound: COc1cccc(NC(=O)CC(=O)NNCC(=O)Nc2nnc(-c3ccc(N(CCC#N)S(=O)(=O)c4ccccc4)cc3)s2)c1
- EC50: > 77.6 µM
- IC50: 66.1 µM

Compound: COC(=O)/C(=N\NC(N)=O)C(C(=O)C(=O)Nc1ccccc1C(=O)OC)c1nc2ccc(C(=O)c3ccccc3)cc2[nH]c1=O (stereo unspecified)
- outcome: inactive

Compound: O=c1[nH]c(N/N=C\C(=N/Nc2nc3ccccc3c(=O)[nH]2)C(O)C(O)C(O)CO)nc2ccccc12 (stereo unspecified)
- EC50: > 200 µM
- IC50: > 200 µM

Compound: COC(=O)[C@H](C)NC(=O)[C@H](CSC)N1C(=O)N[C@@H](C(C)C)C1=O
- EC50: > 200 µM
- IC50: 24.5 µM

Compound: OCCN1CC2CCCC1O2 (stereo unspecified)
- EC50: > 1580 µM
- IC50: > 1580 µM

Compound: CC(C)=CCC12Cc3ccc(O)cc3C(C(C)CN1)C2C (stereo unspecified)
- EC50: > 200 µM
- IC50: > 200 µM

Compound: Cc1nc2nnc(CCCCCCCCc3nnc4nc(C)[nH]n34)n2[nH]1
- EC50: 135 µM
- IC50: 174 µM

Compound: O=c1c2ccccc2sc2cccc(NCCCN3CCN(CCCNc4cccc5sc6ccccc6c(=O)c45)CC3)c12
- EC50: > 100 µM
- IC50: > 100 µM

Compound: CC1OC1C(=O)C1(O)C(C)C(O)C23OC2(C(O)c2c(O)cccc2C3=O)C1O (stereo unspecified)
- EC50: > 229 µM
- IC50: 0.229 µM

Compound: COc1ccc(N=Nc2c(-c3ccccc3)nn(C(=O)CC(=O)Nc3ccccc3Cl)c2-c2ccccc2)cc1
- EC50: > 24.5 µM
- IC50: 22.9 µM

Compound: Brc1cnc2nsnc2c1
- outcome: inactive

Compound: Cc1cc(N(CCC#N)S(=O)(=O)c2ccccc2)ccc1/C=C1N=C(/C=C/c2ccccc2)OC\1=O
- outcome: inactive

Compound: Cc1cc(=O)c2cc3ccc4c5[nH]c(C)cc(=O)c5cc5ccc(c2[nH]1)c3c54
- EC50: > 200 µM
- IC50: 33.9 µM

Compound: CN1CCCC(C#N)(c2ccccc2)CC1 (stereo unspecified)
- outcome: inactive

Compound: CC(C)CC(N)C(=O)NC(C(N)=O)c1ccc(O)cc1 (stereo unspecified) (H-Leu-[Hpg]-NH2; configuration not given here)
- EC50: > 200 µM
- IC50: > 200 µM

Compound: CC1=C(C(=O)Nc2ccccc2)C(c2cc(Cl)cc(Cl)c2)C(C(=O)Nc2ccccc2)=C(C)N1
- EC50: > 14.5 µM
- IC50: > 14.5 µM

Compound: COc1ccc(N2C(=O)C3c4[nH]c5ccccc5c4C4CCC(c5ccccc5)CC4C3C2=O)cc1 (stereo unspecified)
- EC50: > 100 µM
- IC50: > 100 µM

Compound: CSC(=O)c1sc(SC)[n+](-c2ccccc2)c1O
- EC50: > 200 µM
- IC50: 10.2 µM

Compound: O=C1CCCC(=O)N1n1c(Cc2ccccc2)n[nH]c1=O
- EC50: > 200 µM
- IC50: > 200 µM

Compound: CC(=O)NC1=N/C(=C/c2cc([N+](=O)[O-])ccc2O)CN1C
- EC50: > 200 µM
- IC50: > 200 µM

Compound: CC(C)OP(=O)(OC(C)C)c1nc(-c2ccccc2)n(-c2ccc([N+](=O)[O-])cc2)n1
- EC50: > 302 µM
- IC50: 219 µM

Compound: CN(O)C(=O)c1ccc(OCc2cccc(Cl)c2)cc1
- EC50: > 200 µM
- IC50: 12.6 µM

Compound: O=C(O)c1c(Cl)c(Cl)c(Cl)c(Cl)c1-c1c2ccc(=O)cc-2oc2cc(O)ccc12
- EC50: 6.46 µM
- IC50: 29.5 µM

Compound: Cn1c(=O)nc2n(-c3ccc(F)c(F)c3)c3ccccc3nc-2c1=O
- outcome: inactive

Compound: COc1ccc(/C(C#N)=C/c2cccc([N+](=O)[O-])c2)cc1
- EC50: > 200 µM
- IC50: > 200 µM

Compound: c1ccc2c(c1)[nH]c1c(N3CCOCC3)nnc(N3CCOCC3)c12
- EC50: > 200 µM
- IC50: > 200 µM

Compound: O=C1C2C3C=CC(O3)C2C(=O)N1/N=C\C(O)C(O)C(O)C(O)CO (stereo unspecified)
- EC50: > 129 µM
- IC50: > 129 µM

Compound: CC1=CC(C)=Nc2ccccc2N1
- EC50: > 200 µM
- IC50: > 200 µM and 195 µM

Compound: NC(=O)CNC(=O)c1ccccc1SC(=O)CC[n+]1ccccc1
- EC50: > 200 µM
- IC50: 102 µM

Compound: CC(C)(C)[Si](C)(C)OCC1OC(n2cc(I)c(N)nc2=O)C(O[Si](C)(C)C(C)(C)C)C1O[Si](C)(C)C(C)(C)C (stereo unspecified)
- EC50: > 200 µM
- IC50: 6.76 µM

Compound: N#C/C(=C\c1cc2ccccc2c2ccccc12)c1ccccc1
- EC50: > 12.3 µM
- IC50: 6.46 µM

Compound: Cc1ccc(S(=O)(=O)SCCCSS(=O)(=O)c2ccc(C)cc2)cc1
- EC50: > 89.1 µM
- IC50: 15.5 µM

Compound: CCOc1ccc(NC(=O)C(=O)C2C(=O)Nc3ccccc3S2=O)cc1 (stereo unspecified)
- EC50: > 50.1 µM
- IC50: > 50.1 µM

Compound: C/C(=N/Nc1ccc([N+](=O)[O-])cc1[N+](=O)[O-])C(CC(C(=O)NCc1ccccc1)/C(C)=N\Nc1ccc([N+](=O)[O-])cc1[N+](=O)[O-])C(=O)NCc1ccccc1 (stereo unspecified)
- EC50: > 6.92 µM
- IC50: > 6.92 µM

Compound: C1CSCCSCCCS[C@@H]2CCCCC2SC1 (stereo partly specified)
- EC50: > 100 µM
- IC50: > 100 µM

Compound: OC(C/C(=N\N=C(/CC(O)(C(F)(F)F)C(F)(F)F)c1ccccc1)c1ccccc1)(C(F)(F)F)C(F)(F)F
- EC50: > 200 µM
- IC50: > 200 µM

Compound: CC(=O)NNc1nc(C)c(C(=O)NNC(=O)C(=O)Nc2c([N+](=O)[O-])ccc(C)c2C)s1
- EC50: > 209 µM
- IC50: 107 µM

Compound: COC(=O)C1=C(C(=O)OC)C2(C)Nc3ccccc3C2=C(c2ccccc2)C1 (stereo unspecified)
- EC50: > 19.1 µM
- IC50: > 19.1 µM

Compound: COC(=O)C1=C(C)NC2=C(C(=O)CCC2)C1CCSC (stereo unspecified)
- outcome: inactive

Compound: COC(=O)C1(NC(=O)C(Cc2ccccc2)N(C(=O)OC(C)(C)C)C(=O)OC(C)(C)C)CCCC1 (stereo unspecified)
- EC50: > 200 µM
- IC50: 110 µM

Compound: COc1ccc(OCc2nc3cc(C(F)(F)F)ccc3nc2-c2ccccc2)cc1
- EC50: > 200 µM
- IC50: > 200 µM

Compound: Fc1ccccc1C1SCc2nc3cc4ccccc4cc3n21 (stereo unspecified)
- EC50: > 200 µM
- IC50: 75.9 µM

Compound: N/C(=N/N=C/c1cc(Cl)ccc1O)N/N=C\c1cc(Cl)ccc1O
- EC50: > 2 µM
- IC50: 1 µM

Compound: Cc1ccc(N/N=c2/ccc(=O)/c(=N\Nc3ccc(S(=O)(=O)O)cc3)c2=O)c(C)c1
- EC50: > 200 µM
- IC50: > 200 µM

Compound: COc1c2c(c(O)c3c4c(c(C)cc13)C1OC3(C(OC)OC5CC(C)(O)C(OC6CC(C)(O)C(O)C(C)O6)C(C)O5)OC1C(OC)(O4)C31CO1)C(=O)C(O)CC2OC1CC(C)(O)C(OC(C)=O)C(C)O1 (stereo unspecified)
- EC50: > 26.3 µM
- IC50: 0.00832 µM

Compound: Cc1nc(C)c(N2CCN(S(=O)(=O)N(Cc3ccccc3)Cc3ccccc3)CC2)c(=O)[nH]1
- EC50: > 200 µM
- IC50: > 200 µM

Compound: COc1cc(-c2cc(CCC(=O)Nc3ccccc3[N+](=O)[O-])n(-c3ccc([N+](=O)[O-])cc3[N+](=O)[O-])n2)ccc1O
- EC50: > 47.9 µM
- IC50: > 47.9 µM

Compound: CCC(C)C1NC(=O)C2CCCN2C(=O)C(Cc2ccc(O)cc2)NC(=O)C(CC(N)=O)NC(=O)C(CCC(N)=O)NC(=O)C(CO)NC(=O)C(C(C)C)NC(=O)C(N)CSSCC(C(=O)O)NC(=O)C(CCC(N)=O)NC(=O)C(C(C)C)NC1=O (stereo unspecified) (H-CVSQNYPIVQC-OH; disulfide 1-11; configuration not given here)
- EC50: > 50.1 µM
- IC50: > 50.1 µM

Compound: O=S(=O)(c1ccccc1)c1ccccc1
- EC50: > 204 µM
- IC50: > 204 µM

Compound: CCOC(=O)C1CSC(=N)N1C(C)=O (stereo unspecified)
- EC50: 115 µM
- IC50: 123 µM

Compound: C/C(CC(O)(C(F)(F)F)C(F)(F)F)=N\N
- EC50: > 200 µM
- IC50: > 200 µM

Compound: Cc1ccc(C(=O)Nc2ccc(CP(=O)(O)O)cc2CP(=O)(O)O)cc1NC(=O)Nc1cc(C(=O)Nc2ccc(CP(=O)(O)O)cc2CP(=O)(O)O)ccc1C
- EC50: > 200 µM
- IC50: > 200 µM

Compound: COc1ccc(C2=C3c4cc(OC)c(OC)cc4CCN3C(=S)SS2)cc1OC
- outcome: inactive

Compound: COc1ccc(NC(=O)C/C(C)=N\N=C(N)N)c([N+](=O)[O-])c1
- EC50: > 115 µM
- IC50: > 115 µM

Compound: COC(=O)/C=C1/C(COC(c2ccccc2)(c2ccccc2)c2ccccc2)OC(n2ccc(=O)[nH]c2=O)C1O[Si](C)(C)C(C)(C)C (stereo unspecified)
- EC50: > 200 µM
- IC50: 10.7 µM

— PubChem BioAssay AID179 (DTP/NCI, 2004)
